Reference: patent publication US8816088B2 (Theravance, Inc., priority 2009, dated 2014)
Counter-ions that a name gives are not always drawn.

System: MCh-induced bronchoconstriction
Assay: Einthoven assay: bronchoprotection against methacholine (MCh)-induced bronchoconstriction
Assay type: in vivo
Settings: Rattus norvegicus, inhaled or nasal, 24 h, read-out: Broncho. at 24 h, Bronchoprotective effect present at 24 h, 100 μg by inhalation, 24 h after administration
Procedure: This assay measures the ability of a test compound to provide bronchoprotection against methacholine (MCh)-induced bronchoconstriction in a rat. Male Sprague-Dawley rats (Harlan, Indianapolis, Ind.), weighing between 200 g and 350 g, were used for all studies. Test compound or vehicle (sterile deionized water) were dosed by inhalation (1H) over a 10 min period in a pie shaped inhalation chamber (R+S Molds, San Carlos, Calif.) using 5 mL of dosing solution. […] Rats were dosed with 100 μg of test compound unless otherwise indicated. At predetermined time points, rats were anesthetized with an intraperitoneal (IP) injection of 120 mg/kg inactin (thiobutabarbital). A supplemental dose (40 mg/kg, IP) was administered if the animal responded to physical stimuli (e.g. toe pinch). The surgical site was shaved and a 1-2 cm midline incision of the ventral aspect of the neck was made. The jugular vein was isolated and cannulated with a saline-filled polyethylene catheter (PE-50) to allow IV infusion of MCh. Trachea was dissected free and cannulated with a 14G needle (#NE-014, Small Parts, Miami Lakes, Fla.). After placement of the tracheal cannula, each rat was ventilated using a respirator (Model 683, Harvard Apparatus, Inc., MA) set at a stroke volume of 1 mL/100 g body weight (but not exceeding 2.5 mL volume) and a rate of 90 strokes per minute. A T-connector was placed along the respirator expiratory tubing to allow for measurement of changes in ventilation pressure (VP) using a Biopac transducer that was connected to a Biopac […]) pre-amplifier. Body temperature was maintained at 37° C. using a heating pad. Changes in VP were recorded using the Acknowledge Data Collection Software (Santa Barbara, Calif.). Baseline values were collected for at least 2.5 min. Rats were then challenged with non-cumulative intravenous (IV) infusions of 40 and 80 μg/kg MCh. MCh was infused intravenously for 2.5 minutes from a syringe pump (sp210iw, World Precision Instruments, Inc., Sarasota, Fla.) at a rate of 2 mL/kg/min, with a 2 minute interval between the two doses of MCh. Changes in ventilation pressure (cm H2O) in treated animals are expressed as % inhibition of MCh response relative to control animals. Other bronchoconstrictors, such as histamine and acetylcholine, can be used in place of MCh in this assay. Additionally, guinea pigs can be used instead of rats. […] Inhibition greater than or equal to 30 percent at 24 h is indicative of a long duration of action.

Row | Compound | inhibition in vivo at 0.1 mg [%]
1 | Cc1cc(CNC[C@H](O)c2ccc(O)c3[nH]c(=O)ccc23)ccc1NC(=O)CCCN(C)C(=O)CCN1CCC(OC(=O)Nc2ccccc2-c2ccccc2)CC1 [Compound I-2, Biphenyl-2-ylcarbamic acid 1-(2-{[3-(4-{[(R)-2-hydroxy-2-(8-hydroxy-2-oxo-1,2-dihydroquinolin-5-yl)ethylamino]methyl}-2-methylphenylcarbamoyl)-propyl]methylcarbamoyl}ethyl)piperidin-4-yl ester ditrifluoroacetic acid salt] | < 30
2 | C[C@@H](Cc1cccc(CCNC(=O)c2ccc(N(C)C(=O)CCN3CCC(OC(=O)Nc4ccccc4-c4ccccc4)CC3)cc2)c1)NC[C@H](O)c1ccc(O)c2[nH]c(=O)ccc12 [Compound I-56, Biphenyl-2-ylcarbamic acid 1-[2-({4-[2-(3-{(S)-2-[(R)-2-hydroxy-2-(8-hydroxy-2-oxo-1,2-dihydroquinolin-5-yl)-ethylamino]propyl}phenyl)ethylcarbamoyl]phenyl}-methylcarbamoyl)ethyl]piperidin-4-yl ester ditrifluoroacetic acid salt] | < 30
3 | Cc1cc(NC(=O)c2cccc(N(C)C(=O)CCN3CCC(OC(=O)Nc4ccccc4-c4ccccc4)CC3)c2)c(C)cc1CNC[C@H](O)c1ccc(O)c2[nH]c(=O)ccc12 [Compound I-30, ditrifluoroacetic acid salt] | < 30
4 | COc1cc(CNC[C@H](O)c2ccc(O)c3[nH]c(=O)ccc23)ccc1NC(=O)c1cccc(N(C)C(=O)CCN2CCC(OC(=O)Nc3ccccc3-c3ccccc3)CC2)c1 [Compound I-29, ditrifluoroacetic acid salt] | < 30
5 | C[C@@H](Cc1cccc(NC(=O)c2cccc(N(C)C(=O)CCN3CCC(OC(=O)Nc4ccccc4-c4ccccc4)CC3)c2)c1)NC[C@H](O)c1ccc(O)c2[nH]c(=O)ccc12 [Compound I-39, ditrifluoroacetic acid salt] | < 30
